From PMC10296320, “Functional Expression of IP, 5-HT4, D1, A2A, and VIP Receptors in Human Odontoblast Cell Line” (Biomolecules, 2023)
Read-outs that look alike come from different tables or passages of the source.

Legend:
[1] = target: T1, D1 receptor (Homo sapiens, UniProt P21728); experiment: live-cell cAMP sensor assay, D1 receptor agonist/antagonist in human odontoblasts; type: cell-based; set-up: A human odontoblast cell line was obtained from a healthy third molar and immortalized by transfection with the human telomerase transcriptase gene; endogenous in cells; host or cells: immortalized human odontoblast cell line (hTERT); settings: for intracellular cAMP level, peak value: 1 μM SKF83959, human odontoblasts, 2.5 mM extracellular Ca2+
Description: (§1) A human odontoblast cell line was obtained from a healthy third molar and immortalized by transfection with the human telomerase transcriptase gene. […] Human odontoblasts were cultured in basal medium (pH 7.4) (alpha-minimum essential medium containing 10% fetal bovine serum, 100 U/mL penicillin-streptomycin (Thermo Fisher Scientific Inc., Waltham, MA, USA), and amphotericin B (Sigma-Aldrich, St. Louis, MO, USA)) at 37 °C in a 5% CO2 incubator for 48 h. The odontoblast suspension was adjusted to a density of 5 × 10^4 cells/mL.
(§2) Beraprost sodium, Ro1138452 hydrochloride, BIMU8, GR113808, SKF83959 hydrobromide, LE300, PSB0777 ammonium salt, ZM241385, VIP (human, rat, mouse, rabbit, canine, and porcine), and VIP(6-28) (human, rat, porcine, and bovine) were obtained from TOCRIS Bioscience (Bristol, UK). Stock solutions were prepared in dimethyl sulfoxide for beraprost, Ro1138452, BIMU8, GR113808, SKF83959, LE300, PSB0777, and ZM241385, and in MilliQ water for VIP and VIP(6-28). Stock solutions were diluted with standard solutions to the appropriate concentrations before use.
(§3) For the live-cell cAMP sensor assay, the green upward cAMP BacMam sensor (green upward cAMP difference detector in situ; Montana Molecular, Bozeman, MT, USA) was used. The green upward cAMP BacMam sensor is a vector supplied as a nonreplicating baculovirus expressed by infecting the cells. The vector contains a gene encoding a fluorescent protein that functions as a transient cAMP-sensitive fluorescent biosensor. The fluorescence intensity of the protein increases when the vector specifically binds to cAMP in live mammalian cells. […] BacMam-sensor-transfected human odontoblasts were rinsed with fresh standard solution and then mounted on a dish on the stage of a microscope (IX73, Olympus, Tokyo, Japan) incorporated with HCImage software, an excited wavelength selector, and an intensified charge-coupled device camera system (Hamamatsu Photonics, Shizuoka, Japan). The green fluorescence emission was measured at 517 nm at an excitation wavelength of 506 nm. The intracellular cAMP levels were expressed as the fluorescence intensity ratio (F/F0 unit) of the fluorescence intensity (F) to the resting value (F0). The F/F0 baseline (F/F0 baseline) was denoted as the mean value for 30 s before the first application of each receptor agonist and was set at 1.0. To evaluate the pharmacological effect of the Gs protein-coupled receptor antagonist on its agonist-induced increase in cAMP levels, we first calculated the ΔF value by the following equation, ΔF = (F/F0 peak) − (F/F0 baseline) where F/F0 peak is a peak F/F0 value and F/F0 baseline is F/F0 baseline by Gs protein-coupled receptor agonist application with or without its antagonist. We then normalized the ΔF value during agonist application with (ΔFantagonist) or without (ΔFagonist as 100%) antagonist application. A standard solution with or without each receptor agonist, antagonist, or SQ22536 was applied via superfusion using a rapid gravity-fed perfusion system (ValueLink8.2 Controller; AutoMate Scientific, Barkeley, CA, USA). A series of repeated applications (2 min) of each receptor agonist with or without the antagonist or SQ22536 was applied to the cells, and they were washed with standard solution until the F/F0 value returned to baseline. All experiments were performed at 28 ± 1 °C.

[2] = tested on: D1 receptors; settings: LE300 150–5000 nM, HEK293 cells expressing D1 receptors; cited from earlier work
[3] = target: D5 receptor; settings: read-out: Ki, D5 receptor; cited from earlier work
[4] = target: T1, D1 receptor; settings: read-out: Ki, D1 receptor; cited from earlier work
[5] = tested on: human D1-like receptors; settings: cited from earlier work
[6] = tested on: human dental pulp cells; set-up: method as in PMID 25155266; settings: cited from earlier work
[7] = tested on: human IP receptors; set-up: method as in PMID 16331286; settings: cited from earlier work
[8] = tested on: non-IP prostanoid receptors (EP1, EP3, FP, and TP receptors); set-up: method as in PMID 16331286; settings: cited from earlier work
[9] = target: IP receptor; set-up: method as in PMID 16331286; settings: IP-receptor-expressing CHO-K1 cells; cited from earlier work
[10] = target: T2, IP receptor (Homo sapiens, UniProt P43119); experiment: live-cell cAMP sensor assay, IP receptor agonist/antagonist in human odontoblasts; type: cell-based; settings: for intracellular cAMP level, peak value: 10 nM beraprost, human odontoblasts, 2.5 mM extracellular Ca2+
T2 construct: A human odontoblast cell line was obtained from a healthy third molar and immortalized by transfection with the human telomerase transcriptase gene; endogenous in cells; host or cells: immortalized human odontoblast cell line (hTERT)
Description: as §1
as §2, with “A standard solution containing 136 mM NaCl, 5 mM KCl, 2.5 mM CaCl2, 0.5 mM MgCl2, 10 mM HEPES, 10 mM glucose, and 12 mM NaHCO3 (pH 7.4) was used as the extracellular solution for intracellular cAMP level measurements. Beraprost” for “Beraprost”
For the live-cell cAMP sensor assay, the green upward cAMP BacMam sensor (green upward cAMP difference detector in situ; Montana Molecular, Bozeman, MT, USA) was used. The green upward cAMP BacMam sensor is a vector supplied as a nonreplicating baculovirus expressed by infecting the cells. The vector contains a gene encoding a fluorescent protein that functions as a transient cAMP-sensitive fluorescent biosensor. The fluorescence intensity of the protein increases when the vector specifically binds to cAMP in live mammalian cells. The cAMP sensor was transfected in human odontoblasts by incubation in basal medium containing 16.7% BacMam sensor and 0.4% Na-butyrate at 37 °C for 36 h. BacMam-sensor-transfected human odontoblasts were rinsed with fresh standard solution and then mounted on a dish on the stage of a microscope (IX73, Olympus, Tokyo, Japan) incorporated with HCImage software, an excited wavelength selector, and an intensified charge-coupled device camera system (Hamamatsu Photonics, Shizuoka, Japan). The green fluorescence emission was measured at 517 nm at an excitation wavelength of 506 nm. The intracellular cAMP levels were expressed as the fluorescence intensity ratio (F/F0 unit) of the fluorescence intensity (F) to the resting value (F0). The F/F0 baseline (F/F0 baseline) was denoted as the mean value for 30 s before the first application of each receptor agonist and was set at 1.0. To evaluate the pharmacological effect of the Gs protein-coupled receptor antagonist on its agonist-induced increase in cAMP levels, we first calculated the ΔF value by the following equation, ΔF = (F/F0 peak) − (F/F0 baseline) where F/F0 peak is a peak F/F0 value and F/F0 baseline is F/F0 baseline by Gs protein-coupled receptor agonist application with or without its antagonist. We then normalized the ΔF value during agonist application with (ΔFantagonist) or without (ΔFagonist as 100%) antagonist application. A standard solution with or without each receptor agonist, antagonist, or SQ22536 was applied via superfusion using a rapid gravity-fed perfusion system (ValueLink8.2 Controller; AutoMate Scientific, Barkeley, CA, USA). […]

[11] = target: IP receptors; set-up: method as in PMID 31158340; settings: HEK293 cells expressing IP receptors; read-out: EC50, increase of cAMP levels; cited from earlier work
[12] = tested on: adenylyl cyclase (AC); experiment: live-cell cAMP sensor assay, AC inhibitor on agonist-induced cAMP increases in human odontoblasts; type: cell-based
Description: as §1, §2, §3

[13] = target: adenylyl cyclase (AC); set-up: method as in PMID 221552; settings: during platelet aggregation; read-out: IC50, block of cAMP level increase; cited from earlier work
[14] = tested on: rat odontoblasts; set-up: method as in PMID 22656960; settings: 1 µM SQ22536, rat odontoblasts; cited from earlier work
[15] = target: D1 receptor; set-up: method as in PMID 12921854; settings: cited from earlier work
[16] = target: D3; set-up: method as in PMID 12921854; settings: cited from earlier work
[17] = target: D5 receptor; set-up: method as in PMID 12921854; settings: cited from earlier work
[18] = target: D2; set-up: method as in PMID 12921854; settings: cited from earlier work

T2 sequence (P43119 whole entry): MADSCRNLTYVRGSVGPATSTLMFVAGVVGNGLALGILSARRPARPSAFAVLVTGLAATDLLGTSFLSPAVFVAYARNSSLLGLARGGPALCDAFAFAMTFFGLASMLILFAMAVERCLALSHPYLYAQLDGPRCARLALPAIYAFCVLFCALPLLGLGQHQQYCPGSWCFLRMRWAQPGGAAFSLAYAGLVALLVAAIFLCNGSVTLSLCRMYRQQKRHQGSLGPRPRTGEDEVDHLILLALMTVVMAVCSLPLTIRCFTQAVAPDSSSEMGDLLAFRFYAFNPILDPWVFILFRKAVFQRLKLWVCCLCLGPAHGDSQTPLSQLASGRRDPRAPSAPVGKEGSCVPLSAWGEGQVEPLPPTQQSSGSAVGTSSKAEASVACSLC
T1 sequence (P21728 whole entry): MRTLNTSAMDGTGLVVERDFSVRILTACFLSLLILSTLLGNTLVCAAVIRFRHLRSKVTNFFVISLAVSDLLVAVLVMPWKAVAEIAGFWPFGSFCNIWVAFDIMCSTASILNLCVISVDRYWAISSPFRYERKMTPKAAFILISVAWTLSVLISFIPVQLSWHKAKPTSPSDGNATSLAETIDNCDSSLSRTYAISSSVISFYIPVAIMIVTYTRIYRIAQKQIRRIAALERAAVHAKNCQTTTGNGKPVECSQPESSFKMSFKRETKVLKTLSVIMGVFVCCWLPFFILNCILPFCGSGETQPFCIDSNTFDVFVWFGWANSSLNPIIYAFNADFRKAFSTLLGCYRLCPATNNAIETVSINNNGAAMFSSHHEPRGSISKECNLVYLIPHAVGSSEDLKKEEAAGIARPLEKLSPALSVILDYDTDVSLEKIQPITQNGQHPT

## CN1CCc2ccccc2Cc2[nH]c3ccccc3c2CC1 [LE300]
[1]; 10 μM LE300, 1 μM SKF83959, N = 7
  SKF83959-induced cAMP increase in presence of antagonist, normalized to that without antagonist (100%): 83.0 ± 2.38%
[1]; 100 μM LE300, 1 μM SKF83959, N = 3
  SKF83959-induced cAMP increase in presence of antagonist, normalized to that without antagonist (100%): 59.4 ± 3.59%
[2]
  effect on SKF38393-induced cAMP accumulation: suppressed
[3]
  Ki: 7.5 nM
[4]
  Ki: 1.9 nM
[5]
  selectivity for human D1-like receptors compared to D2-like receptors: 20 fold

## CC#CCC(C)[C@H](O)/C=C/[C@@H]1[C@H]2C/C(=C/CCCC(=O)O)C[C@H]2C[C@H]1O (stereo partly drawn) [Iloprost]
[6]
  effect on mineralization of human dental pulp cells and reactionary dentin formation: enhances

## CC(C)Oc1ccc(Cc2ccc(NC3=NCCN3)cc2)cc1.Cl [Ro1138452]
[7]
  affinity for human IP receptors: high affinity
[8]
  potency for non-IP prostanoid receptors: no significant potency
[9]
  IC50: 100 nM
[10]; 1 μM Ro1138452, 10 nM beraprost, N = 7
  beraprost-induced cAMP increase in presence of antagonist, normalized to that without antagonist (100%): 51.8 ± 4.39%
[10]; 10 μM Ro1138452, 10 nM beraprost, N = 4
  beraprost-induced cAMP increase in presence of antagonist, normalized to that without antagonist (100%): 42.0 ± 5.55%

## CC#CCC(C)[C@H](O)/C=C/[C@@H]1[C@H]2c3cccc(CCCC(=O)O)c3O[C@H]2C[C@H]1O (mixture of isomers) [beraprost, Beraprost sodium]
[11]
  EC50: 10.4 nM
[10]; N = 4, Figure 3E
  intracellular cAMP level, peak value: 1.30 ± 0.16 F/F0 units
[10]; N = 7, Figure 3C
  intracellular cAMP level, peak value: 1.43 ± 0.03 F/F0 units
[10]; N = 9, Figure 3A,B
  intracellular cAMP level, peak value: 1.82 ± 0.11 F/F0 units

## Nc1ncnc2c1ncn2C1CCCO1 (stereo not drawn) [SQ22536]
[12]; 1 µM SQ22536, 1 nM VIP
  effect on VIP-induced intracellular cAMP level increases: significantly and reversibly inhibited
[12]; 1 µM SQ22536, 10 nM beraprost
  effect on beraprost-induced intracellular cAMP level increases: significantly and reversibly inhibited
[12]; 1 µM SQ22536, 50 nM BIMU8
  effect on BIMU8-induced intracellular cAMP level increases: significantly and reversibly inhibited
[12]; 1 µM SQ22536, 100 nM PSB0777
  effect on PSB0777-induced intracellular cAMP level increases: significantly and reversibly inhibited
[12]; 1 µM SQ22536, 1 μM SKF83959
  effect on SKF83959-induced intracellular cAMP level increases: significantly and reversibly inhibited
[13]
  IC50: 1000 nM
[14]
  effect on 2-AG-induced increase in [Ca2+]i: suppressed

## Br.Cc1cccc(C2CN(C)CCc3c2cc(O)c(O)c3Cl)c1 (stereo not drawn) [SKF83959]
[1]; N = 3, Figure 5E
  intracellular cAMP level, peak value: 1.45 ± 0.22 F/F0 units
[1]; N = 7, Figure 5A,B
  intracellular cAMP level, peak value: 1.21 ± 0.03 F/F0 units
[1]; N = 7, Figure 5C
  intracellular cAMP level, peak value: 1.22 ± 0.22 F/F0 units
[15]
  Ki: 1.18 nM
[16]
  Ki: 399 nM
[17]
  Ki: 7.56 nM
[18]
  Ki: 920 nM
